The source made the active and inactive calls. The rule behind the calls is not given here.
Legend:
[1] = biological target: T1, Probable G-protein coupled receptor 34 (Homo sapiens, UniProt Q9UPC5); experiment: Antagonist activity at GPR34 (unknown origin) by Glosensor cAMP assay; format: functional
[2] = biological target: T1, Probable G-protein coupled receptor 34; experiment: Antagonist activity at GPR34 (unknown origin) by Tango assay; format: functional
[3] = Cytotoxicity against HEK293 cells incubated for 72 hrs by MTT assay; format: toxicity, cell-based; conditions: human
[4] = Cytotoxicity against human LX2 cells incubated for 72 hrs by MTT assay; format: toxicity, cell-based; conditions: LX-2 cells
[5] = Cytotoxicity against human BEAS-2B cells incubated for 72 hrs by MTT assay; format: toxicity, cell-based
[6] = Cytotoxicity against human HUVEC cells incubated for 72 hrs by MTT assay; format: toxicity, cell-based
[7] = Cytotoxicity against human Muller cells incubated for 72 hrs by MTT assay; format: toxicity, cell-based, Muller cell
[8] = Cytotoxicity against African green monkey COS-7 cells incubated for 72 hrs by MTT assay; format: toxicity, cell-based, Chlorocebus aethiops
[9] = biological target: T2, Lysophosphatidic acid receptor 3 (Homo sapiens, UniProt Q9UBY5); experiment: Agonist activity at LPAR3 (unknown origin); format: functional
T2 sequence (Q9UBY5 whole entry): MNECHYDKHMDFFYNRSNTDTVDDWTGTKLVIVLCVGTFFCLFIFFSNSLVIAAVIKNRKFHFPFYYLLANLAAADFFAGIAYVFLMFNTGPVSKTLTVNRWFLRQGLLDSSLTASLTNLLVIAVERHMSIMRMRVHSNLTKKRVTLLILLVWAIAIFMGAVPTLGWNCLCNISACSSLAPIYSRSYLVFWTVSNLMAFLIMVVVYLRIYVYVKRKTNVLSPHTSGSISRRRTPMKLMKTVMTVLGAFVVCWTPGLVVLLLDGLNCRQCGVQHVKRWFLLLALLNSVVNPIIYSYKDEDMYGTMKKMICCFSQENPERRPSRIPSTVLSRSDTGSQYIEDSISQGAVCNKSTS

[10] = biological target: T3, Lysophosphatidic acid receptor 4 (Homo sapiens, UniProt Q99677); experiment: Agonist activity at LPAR4 (unknown origin); format: functional
P2Y purinoceptor 12 [11] = biological target: T4, P2Y purinoceptor 12 (Homo sapiens, UniProt Q9H244); experiment: Agonist activity at P2Y12R (unknown origin); format: functional
Cannabinoid receptor 2 [12] = biological target: T5, Cannabinoid receptor 2 (Homo sapiens, UniProt P34972); experiment: Agonist activity at CB2 (unknown origin); format: functional
[13] = biological target: T6, C-X-C chemokine receptor type 5 (Homo sapiens, UniProt P32302); experiment: Agonist activity at CXCR5 (unknown origin); format: functional
T6 sequence (P32302 whole entry): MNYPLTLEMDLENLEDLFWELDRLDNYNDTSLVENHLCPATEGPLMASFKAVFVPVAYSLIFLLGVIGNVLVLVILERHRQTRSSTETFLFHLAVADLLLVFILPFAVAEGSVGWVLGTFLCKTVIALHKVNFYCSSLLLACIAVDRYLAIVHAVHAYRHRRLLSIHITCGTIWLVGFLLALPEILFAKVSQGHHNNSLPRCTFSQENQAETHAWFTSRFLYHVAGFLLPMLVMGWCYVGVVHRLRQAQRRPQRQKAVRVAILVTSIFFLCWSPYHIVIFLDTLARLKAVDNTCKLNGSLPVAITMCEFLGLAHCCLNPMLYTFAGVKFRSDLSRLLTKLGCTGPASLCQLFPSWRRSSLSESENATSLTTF

Adenosine receptor A3 [14] = biological target: T7, Adenosine receptor A3 (Homo sapiens, UniProt P0DMS8); experiment: Agonist activity at A3AR (unknown origin); format: functional
T7 sequence (P0DMS8 whole entry): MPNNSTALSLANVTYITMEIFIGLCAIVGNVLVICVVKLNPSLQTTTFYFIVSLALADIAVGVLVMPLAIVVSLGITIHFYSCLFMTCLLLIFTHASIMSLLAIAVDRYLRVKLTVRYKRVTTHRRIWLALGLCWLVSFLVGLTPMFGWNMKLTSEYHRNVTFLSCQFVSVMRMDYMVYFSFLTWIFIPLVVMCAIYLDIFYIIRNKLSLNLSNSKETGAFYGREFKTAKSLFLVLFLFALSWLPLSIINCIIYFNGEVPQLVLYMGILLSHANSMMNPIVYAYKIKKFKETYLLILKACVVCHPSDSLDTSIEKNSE

[15] = biological target: T2, Lysophosphatidic acid receptor 3; experiment: Antagonist activity at LPAR3 (unknown origin); format: functional
[16] = biological target: T3, Lysophosphatidic acid receptor 4; experiment: Antagonist activity at LPAR4 (unknown origin); format: functional
P2Y purinoceptor 12 [17] = biological target: T4, P2Y purinoceptor 12; experiment: Antagonist activity at P2Y12R (unknown origin); format: functional
Cannabinoid receptor 2 [18] = biological target: T5, Cannabinoid receptor 2; experiment: Antagonist activity at CB2 (unknown origin); format: functional
[19] = biological target: T6, C-X-C chemokine receptor type 5; experiment: Antagonist activity at CXCR5 (unknown origin); format: functional
Adenosine receptor A3 [20] = biological target: T7, Adenosine receptor A3; experiment: Antagonist activity at A3AR (unknown origin); format: functional
[21] = Acute toxicity in C57BL/6 mouse assessed as animal death at 200 mg/kg, ip; format: organism-based; conditions: in vivo
[22] = Toxicity in C57BL/6 mouse assessed as body weight change at 100 mg/kg, ip bid for 6 days consecutively; format: organism-based; conditions: in vivo, 144 h, time 6 day
[23] = Toxicity in C57BL/6 mouse assessed as indications of organ damage at 100 mg/kg, ip bid for 6 days consecutively; format: organism-based; conditions: in vivo, 144 h, time 6 day
Mus musculus = experiment: Antinociceptive activity in mouse model of SNI-induced neuropathic pain assessed as reduction in mechanical allodynia at 10 to 20 mg/kg, ip bid; format: functional, organism-based; conditions: dose 10-20 mg/kg

T1 sequence (Q9UPC5 whole entry): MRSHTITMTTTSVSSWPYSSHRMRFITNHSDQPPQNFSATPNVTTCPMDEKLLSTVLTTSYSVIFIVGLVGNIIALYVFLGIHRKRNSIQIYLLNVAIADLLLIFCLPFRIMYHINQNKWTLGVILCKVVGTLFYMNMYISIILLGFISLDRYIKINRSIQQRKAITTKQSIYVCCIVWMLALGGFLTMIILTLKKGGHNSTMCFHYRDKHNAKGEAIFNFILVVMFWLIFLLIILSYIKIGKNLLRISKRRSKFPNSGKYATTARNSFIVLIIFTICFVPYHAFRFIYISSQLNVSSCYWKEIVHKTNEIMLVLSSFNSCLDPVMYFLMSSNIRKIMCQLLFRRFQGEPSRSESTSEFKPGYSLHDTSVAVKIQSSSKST
T4 sequence (Q9H244 whole entry): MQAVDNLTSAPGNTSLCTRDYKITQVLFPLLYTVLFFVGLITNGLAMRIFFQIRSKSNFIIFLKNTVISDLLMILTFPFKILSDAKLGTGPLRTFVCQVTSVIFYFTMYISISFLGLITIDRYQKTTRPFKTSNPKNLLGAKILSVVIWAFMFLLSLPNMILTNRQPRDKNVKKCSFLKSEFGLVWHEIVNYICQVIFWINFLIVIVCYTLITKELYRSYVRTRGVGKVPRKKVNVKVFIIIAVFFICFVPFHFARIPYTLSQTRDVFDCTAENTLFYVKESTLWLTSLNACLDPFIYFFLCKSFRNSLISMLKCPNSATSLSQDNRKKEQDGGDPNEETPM
T3 sequence (Q99677 whole entry): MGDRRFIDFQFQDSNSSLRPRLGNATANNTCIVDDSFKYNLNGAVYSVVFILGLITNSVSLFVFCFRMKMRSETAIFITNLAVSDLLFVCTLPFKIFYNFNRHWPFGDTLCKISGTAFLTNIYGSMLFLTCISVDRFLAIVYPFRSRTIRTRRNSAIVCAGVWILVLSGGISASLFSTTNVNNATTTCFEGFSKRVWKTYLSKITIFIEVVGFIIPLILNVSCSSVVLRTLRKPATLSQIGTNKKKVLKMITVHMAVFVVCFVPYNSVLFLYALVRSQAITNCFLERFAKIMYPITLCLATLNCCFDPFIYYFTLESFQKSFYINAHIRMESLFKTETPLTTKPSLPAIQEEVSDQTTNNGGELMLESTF
T5 sequence (P34972 whole entry): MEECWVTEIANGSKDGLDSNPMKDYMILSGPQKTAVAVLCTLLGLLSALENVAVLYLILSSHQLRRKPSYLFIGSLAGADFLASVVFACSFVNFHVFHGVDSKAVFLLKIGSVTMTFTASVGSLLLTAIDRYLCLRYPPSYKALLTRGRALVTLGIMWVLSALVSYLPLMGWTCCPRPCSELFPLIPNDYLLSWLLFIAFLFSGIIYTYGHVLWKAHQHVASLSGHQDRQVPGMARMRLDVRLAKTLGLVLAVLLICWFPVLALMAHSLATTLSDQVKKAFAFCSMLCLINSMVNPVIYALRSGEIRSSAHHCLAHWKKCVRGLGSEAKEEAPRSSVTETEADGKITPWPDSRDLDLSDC

SMILES: O=C(COc1ccc(-c2ccc(F)cc2)cc1)N[C@@H](Cc1ccc(OCc2ccccc2)cc1)C(=O)O
- IC50 [1]: 0.968 µM

SMILES: O=C(COc1ccc(F)cc1)N[C@@H](Cc1ccc(OCc2ccccc2)cc1)C(=O)O
- IC50 [1]: 11.6 µM

SMILES: O=C(COc1ccccc1F)N[C@@H](Cc1ccc(OCc2ccccc2)cc1)C(=O)O
- IC50 [1]: > 30 µM

SMILES: O=C(COc1ccc(-c2cccc(Cl)c2)cc1)N[C@@H](CC1CCCCC1)C(=O)O
- IC50 [1]: > 30 µM

SMILES: NC(=O)[C@H](Cc1ccc(OCc2ccccc2)cc1)NC(=O)COc1ccc(-c2cccc(Cl)c2)cc1
- IC50 [1]: > 30 µM

SMILES: Cc1ccc(OCC(=O)N[C@@H](Cc2ccc(OCc3ccccc3)cc2)C(=O)O)cc1
- IC50 [1]: > 30 µM

SMILES: O=C(COc1ccc(-c2cccc(F)c2)cc1)N[C@@H](Cc1ccc(OCc2ccccc2)cc1)C(=O)O
- IC50 [1]: 1.28 µM

SMILES: O=C(COc1ccc(-c2cccc(Cl)c2)cc1)N[C@@H](Cc1ccc(OCc2ccccc2)cc1)C(=O)O
- IC50 [1]: 0.68 µM
- IC50 [2]: 59 nM
- IC50 at 72 h [3]: > 30 µM
- IC50 at 72 h [4]: > 30 µM
- IC50 at 72 h [5]: > 30 µM
- IC50 at 72 h [6]: > 30 µM
- IC50 at 72 h [7]: > 30 µM
- IC50 at 72 h [8]: > 30 µM
- EC50 [9]: > 10 µM
- EC50 [10]: > 10 µM
- EC50 (P2Y purinoceptor 12 [11]): > 10 µM
- EC50 (Cannabinoid receptor 2 [12]): > 10 µM
- EC50 [13]: > 10 µM
- EC50 (Adenosine receptor A3 [14]): > 10 µM
- EC50 [15]: > 10 µM
- EC50 [16]: > 10 µM
- EC50 (P2Y purinoceptor 12 [17]): > 10 µM
- EC50 (Cannabinoid receptor 2 [18]): > 10 µM
- EC50 [19]: > 10 µM
- EC50 (Adenosine receptor A3 [20]): > 10 µM
- Activity [21]: Non-Toxic
- Activity [22]: Non-Toxic
- Activity [23]: Non-Toxic
- Activity (Mus musculus): Active

SMILES: O=C(COc1ccc(-c2ccccc2F)cc1)N[C@@H](Cc1ccc(OCc2ccccc2)cc1)C(=O)O
- IC50 [1]: > 30 µM

SMILES: O=C(COc1ccc(-c2cccc(C(F)(F)F)c2)cc1)N[C@@H](Cc1ccc(OCc2ccccc2)cc1)C(=O)O
- IC50 [1]: 1.31 µM

SMILES: COc1cccc(-c2ccc(OCC(=O)N[C@@H](Cc3ccc(OCc4ccccc4)cc3)C(=O)O)cc2)c1
- IC50 [1]: > 30 µM

SMILES: O=C(COc1cccnc1)N[C@@H](Cc1ccc(OCc2ccccc2)cc1)C(=O)O
- IC50 [1]: > 30 µM

SMILES: O=C(COc1ccc(-c2cccc(Cl)c2)cc1)N[C@@H](Cc1ccc(O)cc1)C(=O)O
- IC50 [1]: > 30 µM

SMILES: O=C(COc1ccc(-c2cccc(Cl)c2)cc1)N[C@H](Cc1ccc(OCc2ccccc2)cc1)C(=O)O
- IC50 [1]: 2.98 µM

SMILES: O=C(COc1cccc(F)c1)N[C@@H](Cc1ccc(OCc2ccccc2)cc1)C(=O)O
- IC50 [1]: 13.9 µM

SMILES: Cn1nccc1-c1ccc(OCC(=O)N[C@@H](Cc2ccc(OCc3ccccc3)cc2)C(=O)O)cc1
- IC50 [1]: > 30 µM

SMILES: O=C(COc1ccccc1)N[C@@H](Cc1ccc(OCc2ccccc2)cc1)C(=O)O
- IC50 [1]: > 30 µM

SMILES: N#Cc1cccc(OCC(=O)N[C@@H](Cc2ccc(OCc3ccccc3)cc2)C(=O)O)c1
- IC50 [1]: 17.4 µM

SMILES: O=C(COc1ccc(-c2ccc(Cl)cc2)cc1)N[C@@H](Cc1ccc(OCc2ccccc2)cc1)C(=O)O
- IC50 [1]: 1.57 µM

SMILES: C[C@H](NC(=O)COc1ccc(-c2cccc(Cl)c2)cc1)C(=O)O
- IC50 [1]: > 30 µM

SMILES: COc1cccc(OCC(=O)N[C@@H](Cc2ccc(OCc3ccccc3)cc2)C(=O)O)c1
- IC50 [1]: > 30 µM

SMILES: CC(C)c1ccc(OCC(=O)N[C@@H](Cc2ccc(OCc3ccccc3)cc2)C(=O)O)cc1
- IC50 [1]: > 30 µM

SMILES: COC(=O)[C@H](Cc1ccc(OCc2ccccc2)cc1)NC(=O)COc1ccc(-c2cccc(Cl)c2)cc1
- IC50 [1]: > 30 µM

SMILES: O=C(COc1ccc(-c2cccc(Cl)c2)cc1)N[C@@H](Cc1ccccc1)C(=O)O
- IC50 [1]: > 30 µM

SMILES: O=C(COc1ccc(Cl)cc1)N[C@@H](Cc1ccc(OCc2ccccc2)cc1)C(=O)O
- IC50 [1]: > 30 µM

Reference: ChEMBL document CHEMBL5584206, “Discovery of (S)-3-(4-(benzyloxy)phenyl)-2-(2-phenoxyacetamido)propanoic acid derivatives as a new class of GPR34 antagonists” (Bioorg Med Chem Lett, 2024)
